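Cells were grown in 96-well plates and exposed to each compound for 48 hours at five concentrations; endpoints were interpolated linearly between bracketing concentrations, or set to the highest concentration if not reached. Abbreviation: GI50, concentration required for 50% inhibition of growth. TGI denotes the concentration required for complete inhibition of growth.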
Columns and labels:
Assay in all cases: inhibition of tumour cell growth, NCI panel, 48 h
SW-620 colon = system: SW-620 colon
HOP-92 NSCLC = system: HOP-92 NSCLC
SR leukemia = system: SR leukemia
HOP-62 NSCLC = system: HOP-62 NSCLC
SK-OV-3 ovarian = system: SK-OV-3 ovarian
HL-60(TB) leukemia = system: HL-60(TB) leukemia
SK-MEL-2 melanoma = system: SK-MEL-2 melanoma
SF-295 CNS = system: SF-295 CNS
NCI-H460 lung = system: NCI-H460 lung
K-562 leukemia = system: K-562 leukemia

c1ccc(Sc2ccc(Cc3nc4cc5ccccc5cc4[nH]3)cc2)cc1 was tested, and the GI50 (SW-620 colon) was 8.38 µM, the TGI (SW-620 colon) was over 67.6 µM and the GI50 (HOP-92 NSCLC) was 6.33 µM. For the same molecule, the TGI (HOP-92 NSCLC) was 66.3 µM, the GI50 (SR leukemia) was 26 µM and the TGI (SR leukemia) was over 100 µM. For the same molecule, the GI50 (HOP-62 NSCLC) was 8.71 µM, the TGI (HOP-62 NSCLC) was over 75.5 µM and the GI50 (SK-OV-3 ovarian) was 3.27 µM. It also gave a TGI (SK-OV-3 ovarian) of over 24.8 µM, a GI50 (HL-60(TB) leukemia) of 76.4 µM and a TGI (HL-60(TB) leukemia) of over 100 µM. The GI50 (SK-MEL-2 melanoma) was 53.6 µM, the TGI (SK-MEL-2 melanoma) was over 100 µM and the GI50 (SF-295 CNS) was 2.65 µM. The TGI (SF-295 CNS) was 34.7 µM, the GI50 (NCI-H460 lung) was 0.21 µM and the TGI (NCI-H460 lung) was over 100 µM. For the same molecule, the GI50 (K-562 leukemia) was 0.279 µM and the TGI (K-562 leukemia) was over 47.8 µM.

Work on c1cnn(CN(Cn2cccn2)Cn2cccn2)c1 yielded a TGI (SW-620 colon) of over 100 µM, a TGI (HOP-92 NSCLC) of over 100 µM and a TGI (SR leukemia) of over 100 µM. It also gave a TGI (HOP-62 NSCLC) of over 100 µM, a TGI (SK-OV-3 ovarian) of over 100 µM and a TGI (HL-60(TB) leukemia) of over 100 µM. The TGI (SK-MEL-2 melanoma) was over 100 µM, the TGI (SF-295 CNS) was over 100 µM and the TGI (NCI-H460 lung) was over 100 µM. For the same molecule, the TGI (K-562 leukemia) was over 100 µM.

With CCCCCCCCCCCCCCCC(=O)OCC(C[As](=O)(O)O)OC(=O)CCCCCCCCCCCCCCC (configuration not stated) the TGI (SW-620 colon) was over 100 µM, the TGI (HOP-92 NSCLC) was over 100 µM and the TGI (SR leukemia) was over 100 µM. The TGI (HOP-62 NSCLC) was over 100 µM, the TGI (SK-OV-3 ovarian) was over 100 µM and the TGI (HL-60(TB) leukemia) was over 100 µM. For the same molecule, the TGI (SK-MEL-2 melanoma) was over 100 µM, the TGI (SF-295 CNS) was over 100 µM and the TGI (NCI-H460 lung) was over 100 µM. For the same molecule, the TGI (K-562 leukemia) was over 100 µM.

CN1CCN(CCCNc2nc3ccc(Oc4ccc(NC(=O)Nc5cc(C(F)(F)F)ccc5F)cc4)cc3[nH]2)CC1 was tested, and the GI50 (SW-620 colon) was 4.35 µM, the TGI (SW-620 colon) was 7.79 µM and the GI50 (HOP-92 NSCLC) was 2.91 µM. For the same molecule, the TGI (HOP-92 NSCLC) was 12.1 µM, the GI50 (SR leukemia) was 6.33 µM and the TGI (SR leukemia) was over 16.8 µM. For the same molecule, the GI50 (HOP-62 NSCLC) was 3.84 µM, the TGI (HOP-62 NSCLC) was 7.25 µM and the GI50 (SK-OV-3 ovarian) was 4.36 µM. For the same molecule, the TGI (SK-OV-3 ovarian) was 10.3 µM, the GI50 (HL-60(TB) leukemia) was 5.2 µM and the TGI (HL-60(TB) leukemia) was 10.3 µM. It also gave a GI50 (SK-MEL-2 melanoma) of 4.64 µM, a TGI (SK-MEL-2 melanoma) of 8.66 µM and a GI50 (SF-295 CNS) of 3.67 µM. It also gave a TGI (SF-295 CNS) of 7.98 µM, a GI50 (NCI-H460 lung) of 4.37 µM and a TGI (NCI-H460 lung) of 8.4 µM. The GI50 (K-562 leukemia) was 4.84 µM and the TGI (K-562 leukemia) was 11.1 µM.

For NS(=O)(=O)c1ccc(-c2ccc3c(NC(=O)C4CC4)n[nH]c3c2)cc1, the GI50 (SW-620 colon) was over 25 µM, the TGI (SW-620 colon) was over 25 µM and the GI50 (HOP-92 NSCLC) was 16.6 µM. It also gave a TGI (HOP-92 NSCLC) of over 25 µM, a GI50 (SR leukemia) of over 25 µM and a TGI (SR leukemia) of over 25 µM. For the same molecule, the GI50 (HOP-62 NSCLC) was over 25 µM, the TGI (HOP-62 NSCLC) was over 25 µM and the GI50 (SK-OV-3 ovarian) was over 25 µM. It also gave a TGI (SK-OV-3 ovarian) of over 25 µM, a GI50 (HL-60(TB) leukemia) of over 25 µM and a TGI (HL-60(TB) leukemia) of over 25 µM. For the same molecule, the GI50 (SK-MEL-2 melanoma) was over 25 µM, the TGI (SK-MEL-2 melanoma) was over 25 µM and the GI50 (SF-295 CNS) was over 25 µM. It also gave a TGI (SF-295 CNS) of over 25 µM, a GI50 (NCI-H460 lung) of over 25 µM and a TGI (NCI-H460 lung) of over 25 µM. For the same molecule, the GI50 (K-562 leukemia) was over 25 µM and the TGI (K-562 leukemia) was over 25 µM.

For CN(C)CCNc1ccc(CO)c2oc3ccc(O)cc3c(=O)c12, the TGI (SW-620 colon) was 61.3 µM, the TGI (HOP-92 NSCLC) was 33.4 µM and the TGI (SR leukemia) was 4.36 µM. The TGI (HOP-62 NSCLC) was 27.3 µM, the TGI (SK-OV-3 ovarian) was 37.4 µM and the TGI (HL-60(TB) leukemia) was 30.9 µM. The TGI (SK-MEL-2 melanoma) was 30.7 µM, the TGI (SF-295 CNS) was 41.5 µM and the TGI (NCI-H460 lung) was 17.4 µM. It also gave a TGI (K-562 leukemia) of 32.4 µM.

COc1ccc(-c2[nH]c3ccc(OC)cc3c2/C=C(\C#N)S(=O)(=O)c2ccccc2)cc1 gave a GI50 (SW-620 colon) of 0.534 µM, a TGI (SW-620 colon) of over 100 µM and a GI50 (HOP-92 NSCLC) of 0.692 µM. For the same molecule, the TGI (HOP-92 NSCLC) was 6.81 µM, the GI50 (SR leukemia) was 0.305 µM and the TGI (SR leukemia) was 2.6 µM. For the same molecule, the GI50 (HOP-62 NSCLC) was 2.97 µM, the TGI (HOP-62 NSCLC) was 48.1 µM and the GI50 (SK-OV-3 ovarian) was 0.963 µM. For the same molecule, the TGI (SK-OV-3 ovarian) was over 65.9 µM, the GI50 (HL-60(TB) leukemia) was 0.812 µM and the GI50 (SK-MEL-2 melanoma) was 6.42 µM. It also gave a TGI (SK-MEL-2 melanoma) of over 69.3 µM, a GI50 (SF-295 CNS) of 0.709 µM and a TGI (SF-295 CNS) of over 23.9 µM. For the same molecule, the GI50 (NCI-H460 lung) was 0.659 µM, the TGI (NCI-H460 lung) was over 26 µM and the GI50 (K-562 leukemia) was 0.475 µM.

In the case of Nc1nc(Nc2cccnc2)sc1C(=O)c1ccccc1F, the GI50 (SW-620 colon) is reported as 3.5 µM, the TGI (SW-620 colon) is reported as over 42.6 µM and the GI50 (HOP-92 NSCLC) is reported as 4.16 µM. For the same molecule, the TGI (HOP-92 NSCLC) was over 100 µM, the GI50 (SR leukemia) was 0.709 µM and the GI50 (HOP-62 NSCLC) was 6.67 µM. The TGI (HOP-62 NSCLC) was over 93.8 µM, the GI50 (SK-OV-3 ovarian) was 15.7 µM and the TGI (SK-OV-3 ovarian) was over 100 µM. It also gave a GI50 (HL-60(TB) leukemia) of 2.09 µM, a TGI (HL-60(TB) leukemia) of 4.81 µM and a GI50 (SK-MEL-2 melanoma) of 2.92 µM. The TGI (SK-MEL-2 melanoma) was 9.79 µM, the GI50 (SF-295 CNS) was 2.69 µM and the TGI (SF-295 CNS) was over 26.9 µM. For the same molecule, the GI50 (NCI-H460 lung) was 2.57 µM, the TGI (NCI-H460 lung) was 17.9 µM and the GI50 (K-562 leukemia) was 6.69 µM. It also gave a TGI (K-562 leukemia) of over 65.4 µM.

With CCc1nc2cc(F)c(/C=C/C(=O)NO)cc2c(=O)n1CCc1ccccc1 the GI50 (SW-620 colon) was 0.336 µM, the TGI (SW-620 colon) was 12.1 µM and the GI50 (HOP-92 NSCLC) was 0.33 µM. It also gave a TGI (HOP-92 NSCLC) of 4.87 µM, a GI50 (SR leukemia) of 0.354 µM and a TGI (SR leukemia) of 53.3 µM. It also gave a GI50 (HOP-62 NSCLC) of 0.291 µM, a TGI (HOP-62 NSCLC) of 1.74 µM and a GI50 (SK-OV-3 ovarian) of 0.263 µM. The TGI (SK-OV-3 ovarian) was 0.787 µM, the GI50 (HL-60(TB) leukemia) was 0.415 µM and the TGI (HL-60(TB) leukemia) was over 100 µM. For the same molecule, the GI50 (SK-MEL-2 melanoma) was 0.293 µM, the TGI (SK-MEL-2 melanoma) was 0.863 µM and the GI50 (SF-295 CNS) was 0.234 µM. For the same molecule, the TGI (SF-295 CNS) was 0.617 µM, the GI50 (NCI-H460 lung) was 0.31 µM and the TGI (NCI-H460 lung) was 3.17 µM. It also gave a GI50 (K-562 leukemia) of 0.303 µM and a TGI (K-562 leukemia) of over 100 µM.

O=C(c1cccc2ccccc12)N1CCC(C2CCN(C(=O)c3cccc4ccccc34)CC2)CC1 was tested, and the TGI (SW-620 colon) was over 100 µM, the TGI (HOP-92 NSCLC) was over 100 µM and the TGI (SR leukemia) was over 100 µM. It also gave a TGI (HOP-62 NSCLC) of over 100 µM, a TGI (SK-OV-3 ovarian) of over 100 µM and a TGI (HL-60(TB) leukemia) of over 100 µM. It also gave a TGI (SK-MEL-2 melanoma) of over 100 µM, a TGI (SF-295 CNS) of over 100 µM and a TGI (NCI-H460 lung) of over 100 µM. It also gave a TGI (K-562 leukemia) of over 100 µM.

For Cc1ccc(NC(=O)c2cccc(C(C)(C)C#N)c2)cc1Nc1ccc2ncn(C)c(=O)c2c1, the GI50 (SW-620 colon) was 1.01 µM, the TGI (SW-620 colon) was over 100 µM and the GI50 (HOP-92 NSCLC) was 0.287 µM. For the same molecule, the TGI (HOP-92 NSCLC) was 4.98 µM, the GI50 (SR leukemia) was 4.79 µM and the TGI (SR leukemia) was over 100 µM. The GI50 (HOP-62 NSCLC) was 1.11 µM, the TGI (HOP-62 NSCLC) was over 100 µM and the GI50 (SK-OV-3 ovarian) was over 100 µM. The TGI (SK-OV-3 ovarian) was over 100 µM, the GI50 (HL-60(TB) leukemia) was 0.0547 µM and the TGI (HL-60(TB) leukemia) was 13.9 µM. For the same molecule, the GI50 (SK-MEL-2 melanoma) was 0.0692 µM, the TGI (SK-MEL-2 melanoma) was 8.69 µM and the GI50 (SF-295 CNS) was 6.99 µM. It also gave a TGI (SF-295 CNS) of over 100 µM, a GI50 (NCI-H460 lung) of 2.76 µM and a TGI (NCI-H460 lung) of over 100 µM. The GI50 (K-562 leukemia) was 0.484 µM and the TGI (K-562 leukemia) was over 79.3 µM.

Source: PubChem BioAssay (NCI)
